Measured values: US20190134054A1, “ASSOCIATION OF ANTAGONISTS OF THE VASOPRESSIN RECEPTOR AND CALCIMIMETICS, COMPOSITION AND USE THEREOF FOR THE TREATMENT OF POLYCYSTIC KIDNEY” (UNIVERSITA' DEGLI STUDI DI BARI ALDO MORO, priority 2017, published 2019)
“Also recorded” adds a separate entry of the source.

Experiments:
[1] = system: intracellular calcium levels; experiment: Intracellular calcium levels after tolvaptan; type: cell-based; settings: treatment with Tolvaptan; CTR=67.06±2.6 nM, P<0.0001
Experimental: The treatment with Tolvaptan determines an increase of the intracellular calcium levels (TLV=99.6±4.1 nM; CTR=67.06±2.6 nM, P<0.0001).

V2 receptor = target: T1, V2 receptor (Canis lupus familiaris, UniProt O77808); experiment: dDAVP-induced intracellular cAMP levels (1/netFRET) in MDCK cells; type: cell-based, canine; settings: dDAVP+TLV vs. dDAVP and CTR
T1 construct: canine kidney cells MDCK endogenously expressing the V2 receptor; endogenous in cells; host or cells: MDCK (canine kidney cells)
Description: The effects of the antagonists of the vasopressin receptor on the concentration of intracellular cAMP have been studied in the canine kidney cells MDCK endogenously expressing the V2 receptor.
Such a reduction of the cAMP levels has been detected through 1/netFRET.
Thus, the treatment with Tolvaptan leads to a reduction of the intracellular cAMP levels. The cAMP levels have been measured through 1/netFRET.

mTOR signaling pathway [2] = experiment: mTOR signaling: S6 ribosomal protein phosphorylation, ciPTEC-PC1Pt cells; type: cell-based, human; settings: 10 μM
Description: (§1) The experiments described from Example 1 to Example 5 have been carried out on i) ciPTEC human kidney cells of the proximal tubule isolated from healthy subjects (ciPTECwt), ii) on the same cells silenced for the gene encoding the polycystin 1 (ciPTE-PC1KO) and iii) on ciPTEC cells isolated from patients affected by ADPKD (ciPTEC-PC1Pt).
(§2) In the present example, the activity of mTOR has been studied by detecting the phosphorylation levels of the S6 ribosomal protein.
(§3) By treating the aforementioned cells with the calciomimetic tecalcet at the concentration of 10 μM, the activity of mTOR is reduced, thus decreasing the S6 phosphorylation.

ciPTEC-PC1KO cells [3] = experiment: Intracellular cAMP levels after tecalcet (FRET), ciPTEC-PC1KO cells; type: cell-based, human; settings: 10 μM, 1/netFRET
Description: as §1
(§4) Such cAMP levels have been measured through FRET.
(§5) The cAMP levels have been measured through 1/netFRET.

ciPTECwt cells = experiment: Intracellular calcium levels after tecalcet (Fura 2), ciPTECwt cells; type: cell-based, human; settings: 10 μM, n=40
Experimental: as §1
(§6) Three types of the aforementioned cellular lines have been treated with 10 μM calciomimetic tecalcet, and the result is that the ciPTEC-PC1Pt cells, isolated from patients suffering from the polycystic kidney disease, respond similarly to the ciPTECwt cells to the stimulation with the calciomimetic, thus leading to an increase of intracellular calcium levels (FIG. 4). Such intracellular calcium levels, in the present example, have been detected thanks to the colorant Fura 2 that is sensitive to calcium.
(§7) The ciPTEC-PC1Pt cells respond similarly to the ciPTECwt cells to the stimulation with NPS-R568 calciomimetic, also called tecalcet, at a concentration of 10 μM. […] The intracellular calcium levels have been measured through the colorant Fura 2 that is sensitive to calcium.

ciPTEC-PC1KO cells [4] = experiment: Intracellular calcium levels after tecalcet (Fura 2), ciPTEC-PC1KO cells; type: cell-based, human; settings: 10 μM, n=47
Experimental: as §1, §6, §7

mTOR signaling pathway [5] = experiment: mTOR signaling: S6 ribosomal protein phosphorylation, ciPTEC-PC1KO cells; type: cell-based, human; settings: 10 μM
Description: as §1, §2, §3

ciPTEC-PC1Pt cells [6] = experiment: Intracellular cAMP levels after tecalcet (FRET), ciPTEC-PC1Pt cells; type: cell-based, human; settings: 10 μM, 1/netFRET
Description: as §1, §4, §5

ciPTEC-PC1Pt cells [7] = experiment: Intracellular calcium levels after tecalcet (Fura 2), ciPTEC-PC1Pt cells; type: cell-based, human; settings: 10 μM, ciPTEC-PC1Pt cells (ADPKD patients), n=30
Experimental: as §1, §6, §7

T1 sequence (O77808 whole entry): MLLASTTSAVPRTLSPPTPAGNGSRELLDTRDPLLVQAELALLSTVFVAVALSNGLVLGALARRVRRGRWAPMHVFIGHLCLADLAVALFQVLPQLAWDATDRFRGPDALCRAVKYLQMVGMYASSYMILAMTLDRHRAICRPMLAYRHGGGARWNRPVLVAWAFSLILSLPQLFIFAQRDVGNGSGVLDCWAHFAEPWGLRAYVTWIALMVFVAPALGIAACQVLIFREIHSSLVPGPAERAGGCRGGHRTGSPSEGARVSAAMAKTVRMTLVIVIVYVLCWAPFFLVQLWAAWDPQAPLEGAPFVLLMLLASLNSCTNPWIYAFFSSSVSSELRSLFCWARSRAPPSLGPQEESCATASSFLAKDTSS

For `Cc1ccccc1C(=O)Nc1ccc(C(=O)N2CCCC(O)c3cc(Cl)ccc32)c(C)c1` (stereo not drawn) [Tolvaptan], the intracellular calcium levels [1] was 99.6 ± 4.1 nM and the “cAMP levels induced by vasopressin (dDAVP)” value (V2 receptor) was “comparable to those of the control”.

`COc1cccc([C@@H](C)NCCCc2ccccc2Cl)c1` [tecalcet] was tested, and the “S6 phosphorylation levels (mTOR activity)” value (mTOR signaling pathway [2]) was “reduces the phosphorylation of S6”, the “basal intracellular cAMP levels” value (ciPTEC-PC1KO cells [3]) was “reduces the basal cAMP levels” and the “intracellular calcium levels, response vs. ATP 100%” value (ciPTECwt cells) was 90.68±2.47%. The “intracellular calcium levels, response vs. ATP 100%” value (ciPTEC-PC1KO cells [4]) was 24.32±2.59%, the “S6 phosphorylation levels (mTOR activity)” value (mTOR signaling pathway [5]) was “comparable levels to those observed in the ciPTECwt cells; also recorded: reduces the phosphorylation of S6” and the “basal intracellular cAMP levels” value (ciPTEC-PC1Pt cells [6]) was “reduces the basal cAMP levels”. The “intracellular calcium levels, response vs. ATP 100%” value (ciPTEC-PC1Pt cells [7]) was 29.51±3.93%.
